{
  "source": "patent US20240148821A1",
  "about": "“PHARMACEUTICAL USE OF CYCLIC PEPTIDE COMPOUND” (CHUGAI SEIYAKU KABUSHIKI KAISHA, priority 2021, published 2024)",
  "note": "Numbered stars: 1 amine (or outer) side, 2 acyl side, 3 side chain; on linkers, the order of the positions; unused ones are H or OH. Bridge positions count the residues as written; N and C are the ends. Square brackets hold non-standard residues; d marks the D form. Peptide text beside a SMILES is read from it. * marks the point of attachment. hPhe(3,5-F2-4-CF3) = N[C@@H](CCc1cc(F)c(C(F)(F)F)c(F)c1)C(=O)O; hPhe(3-Cl-4-CF3) = N[C@@H](CCc1ccc(C(F)(F)F)c(Cl)c1)C(=O)O; hPhe(3-F,4-CF3) = N[C@@H](CCc1ccc(C(F)(F)F)c(F)c1)C(=O)O; NEtPhe(4-CF3) = CCN[C@@H](Cc1ccc(C(F)(F)F)cc1)C(=O)O; X23 = N#Cc1cc(CC[C@H](N[*:1])C(=O)[*:2])ccc1C(F)(F)F; NEtPhe(2-Cl) = CCN[C@@H](Cc1ccccc1Cl)C(=O)O; NMePhe(4-Me) = CN[C@@H](Cc1ccc(C)cc1)C(=O)O; NMedβ3hAla = C[C@H](CC(=O)[*:2])N(C)[*:1]; X119 = CN(C)C(=O)CCCN(CC(=O)[*:2])[*:1]; NMeGly(cPent) = CN[C@H](C(=O)O)C1CCCC1; Pro(4,4-F2) = O=C(O)[C@@H]1CC(F)(F)CN1; NMeCha = CN[C@@H](CC1CCCCC1)C(=O)O; NMeChg = CN[C@H](C(=O)O)C1CCCCC1; NMeI = CC[C@H](C)[C@H](NC)C(=O)O; NMeD = CN[C@@H](CC(=O)O)C(=O)O; dNMeD = CN[C@H](CC(=O)O)C(=O)O; NMeL = CN[C@@H](CC(C)C)C(=O)O; NEtAla = CCN[C@@H](C)C(=O)O; NMeNva = CCC[C@H](NC)C(=O)O; NMeV = CN[C@H](C(=O)O)C(C)C; d(β3hA) = C[C@@H](N)CC(=O)O; NMeA = CN[C@@H](C)C(=O)O; NMeAib = CNC(C)(C)C(=O)O; Piperidide = C1CCN(*)CC1; Pyrrolidide = C1CCN(*)C1; Ac5c = NC1(C(=O)O)CCCC1; Aze = O=C(O)[C@@H]1CCN1; Ac4c = NC1(C(=O)O)CCC1; Sar = CNCC(=O)O",
  "data": [
    {"molecular_target": "protein-protein interaction between Kras and SOS1 (biotin-tagged human Kras loaded with GDP, His-tagged human SOS1) (Homo sapiens (Human), UniProt P01116, G12D)", "experiment": "Protein-protein interaction inhibition between Kras and SOS1 (KrasG12D-SOS PPI) using AlphaScreen;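 also: kras produced in E. coli, Ni-coupled donor beads and streptavidin acceptor beads, excitation 680 nm with emission detected at 520–620 nm via singlet oxygen transfer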", "type": "biochemical", "details": "not given", "units": {"IC50": "nM"}, "values": [
      {"smiles": "CC[C@H](C)[C@@H]1NC(=O)[C@H](CC(C)C)N(C)C(=O)C[C@@H](C(=O)N2CCCCC2)N(C)C(=O)[C@H](C2CCCCC2)N(C)C(=O)C2(CCCC2)NC(=O)CN(CCCC(=O)N(C)C)C(=O)[C@H](CCc2ccc(C(F)(F)F)c(Cl)c2)NC(=O)CN(C)C(=O)[C@H](CC2CCCCC2)N(C)C(=O)CN(C)C(=O)CN(C)C1=O", "note": "[Compound 2052, 4-[(11S,17S,26S,29S,33S,36S)-11-[2-[3-chloro-4-(trifluoromethyl)phenyl]ethyl]-36-cyclohexyl-17-(cyclohexylmethyl)-29-isobutyl-15,18,21,24,30,34,37-heptamethyl-26-[(1S)-1-methylpropyl]-7,10,13,16,19,22,25,28,31,35,38-undecaoxo-33-(piperidine-1-carbonyl)-6,9,12,15,18,21,24,27,30,34,37-undecazaspiro[4.33]octatriacontan-9-yl]-N,N-dimethyl-butanamide] ([NMeL]I[Sar][Sar][NMeCha][Sar][hPhe(3-Cl-4-CF3)][X119][Ac5c][NMeChg][NMeD]-Piperidide; lactam N-11)", "IC50": 4.9}
    ]},
    {"molecular_target": "protein-protein interaction between Kras and SOS1 (biotin-tagged human Kras loaded with GDP, His-tagged human SOS1) (Homo sapiens (Human), UniProt P01116, G12D)", "experiment": "Protein-protein interaction inhibition between Kras and SOS1 (KrasG12D-SOS PPI) using AlphaScreen;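 also: kras produced in E. coli, Ni-coupled donor beads and streptavidin acceptor beads, excitation 680 nm with emission detected at 520–620 nm via singlet oxygen transfer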", "type": "biochemical", "details": "AlphaScreen; biotin-tagged human Kras loaded with GDP, His-tagged human SOS1; read-out: KRAS G12D-SOS PPI IC50", "units": {"IC50": "nM"}, "values": [
      {"smiles": "CC[C@H](C)[C@@H]1NC(=O)[C@H](CC(C)C)N(C)C(=O)C[C@@H](C)NC(=O)[C@H](C2CCCC2)N(C)C(=O)C2(CCCC2)NC(=O)[C@@H]2CCCN2C(=O)[C@H](CCc2ccc(C(F)(F)F)c(Cl)c2)NC(=O)CN(C)C(=O)[C@H](Cc2ccc(C)cc2)N(C)C(=O)[C@@H]2CCN2C(=O)[C@H](C)N(CC)C1=O", "note": "[Compound 1023] (cyclo([Ac5c][NMeGly(cPent)][d(β3hA)][NMeL]I[NEtAla][Aze][NMePhe(4-Me)][Sar][hPhe(3-Cl-4-CF3)]P))", "IC50": 20},
      {"smiles": "CC[C@H](C)[C@@H]1NC(=O)[C@H](C)N(C)C(=O)C[C@@H](C)NC(=O)[C@H](C2CCCCC2)N(C)C(=O)C(C)(C)N(C)C(=O)[C@@H]2CCCN2C(=O)[C@H](CCc2ccc(C(F)(F)F)c(Cl)c2)NC(=O)CN(C)C(=O)[C@H](CC2CCCCC2)N(C)C(=O)[C@@H]2CCN2C(=O)[C@H](C)N(C)C1=O", "note": "[Compound 291] (cyclo([Aze][NMeCha][Sar][hPhe(3-Cl-4-CF3)]P[NMeAib][NMeChg][d(β3hA)][NMeA]I[NMeA]))", "IC50": 55},
      {"smiles": "CC[C@H](C)[C@@H]1NC(=O)[C@H](CC(C)C)N(C)C(=O)C[C@@H](C)NC(=O)[C@H]([C@@H](C)CC)N(C)C(=O)C2(CCCC2)NC(=O)[C@@H]2CCCN2C(=O)[C@H](CCc2ccc(C(F)(F)F)c(Cl)c2)NC(=O)CN(C)C(=O)[C@H](CC2CCCCC2)N(C)C(=O)[C@@H]2CCN2C(=O)[C@H](C)N(C)C1=O", "note": "[Compound 1654] (cyclo([Ac5c][NMeI][d(β3hA)][NMeL]I[NMeA][Aze][NMeCha][Sar][hPhe(3-Cl-4-CF3)]P))", "IC50": 22},
      {"smiles": "CC[C@H](C)[C@@H]1NC(=O)[C@H](CC(C)C)N(C)C(=O)C[C@@H](C(=O)N2CCCCC2)N(C)C(=O)[C@H](C2CCCC2)N(C)C(=O)C2(CCCC2)NC(=O)[C@@H]2CCCN2C(=O)[C@H](CCc2ccc(C(F)(F)F)c(C#N)c2)NC(=O)CN(C)C(=O)[C@H](CC2CCCCC2)N(C)C(=O)[C@@H]2CCN2C(=O)[C@H](C)N(C)C1=O", "note": "[Compound 2072] ([NMeL]I[NMeA][Aze][NMeCha][Sar][X23]P[Ac5c][NMeGly(cPent)][NMeD]-Piperidide; lactam N-11 (inferred); C-terminus assumed)", "IC50": 0.42},
      {"smiles": "CC[C@H](C)[C@@H]1NC(=O)[C@H](CC(C)C)N(C)C(=O)C[C@@H](C(=O)N2CCCCC2)N(C)C(=O)[C@H]([C@@H](C)CC)N(C)C(=O)C2(CCCC2)NC(=O)[C@@H]2CCCN2C(=O)[C@H](CCc2ccc(C(F)(F)F)c(F)c2)NC(=O)CN(C)C(=O)[C@H](CC2CCCCC2)N(C)C(=O)[C@@H]2CCN2C(=O)[C@H](C)N(C)C1=O", "note": "[Compound 409] ([NMeL]I[NMeA][Aze][NMeCha][Sar][hPhe(3-F,4-CF3)]P[Ac5c][NMeI][NMeD]-Piperidide; lactam N-11)", "IC50": 2.4},
      {"smiles": "CC[C@H](C)[C@@H]1NC(=O)[C@H](CC(C)C)N(C)C(=O)C[C@@H](C)N(C)C(=O)[C@H](C2CCCC2)N(C)C(=O)C2(CCCC2)NC(=O)[C@@H]2CCCN2C(=O)[C@H](CCc2ccc(C(F)(F)F)c(F)c2)NC(=O)CN(C)C(=O)[C@H](C2CCCC2)N(C)C(=O)[C@@H]2CCN2C(=O)[C@H](C)N(C)C1=O", "note": "[Compound 386] (cyclo([Ac5c][NMeGly(cPent)][NMedβ3hAla][NMeL]I[NMeA][Aze][NMeGly(cPent)][Sar][hPhe(3-F,4-CF3)]P))", "IC50": 10},
      {"smiles": "CC[C@H](C)[C@@H]1NC(=O)[C@H](CC(C)C)N(C)C(=O)C[C@@H](C)N(C)C(=O)[C@H]([C@@H](C)CC)N(C)C(=O)C2(CCC2)NC(=O)[C@@H]2CC(F)(F)CN2C(=O)[C@H](CCc2cc(F)c(C(F)(F)F)c(F)c2)NC(=O)CN(C)C(=O)[C@H](Cc2ccc(C(F)(F)F)cc2)N(CC)C(=O)[C@@H]2CCN2C(=O)[C@H](C)N(C)C1=O", "note": "[Compound 85] (cyclo([Ac4c][NMeI][NMedβ3hAla][NMeL]I[NMeA][Aze][NEtPhe(4-CF3)][Sar][hPhe(3,5-F2-4-CF3)][Pro(4,4-F2)]))", "IC50": 15},
      {"smiles": "CCC[C@H]1C(=O)N[C@@H]([C@@H](C)CC)C(=O)N(C)[C@@H](C)C(=O)N2CC[C@H]2C(=O)N(C)[C@@H](CC2CCCCC2)C(=O)N(C)CC(=O)N[C@@H](CCc2ccc(C(F)(F)F)c(Cl)c2)C(=O)N2CCC[C@H]2C(=O)NC2(CCCC2)C(=O)N(C)[C@@H](C(C)C)C(=O)N(C)[C@H](C(=O)N2CCCCC2)CC(=O)N1C", "note": "[Compound 1639] ([NMeNva]I[NMeA][Aze][NMeCha][Sar][hPhe(3-Cl-4-CF3)]P[Ac5c][NMeV][NMeD]-Piperidide; lactam N-11)", "IC50": 5.8},
      {"smiles": "CC[C@H](C)[C@@H]1NC(=O)[C@H](CC(C)C)N(C)C(=O)C[C@@H](C)N(C)C(=O)[C@H](C2CCCCC2)N(C)C(=O)C2(CCC2)NC(=O)[C@@H]2CC(F)(F)CN2C(=O)[C@H](CCc2ccc(C(F)(F)F)c(Cl)c2)NC(=O)CN(C)C(=O)[C@H](Cc2ccc(C(F)(F)F)cc2)N(CC)C(=O)[C@@H]2CCN2C(=O)[C@H](C)N(C)C1=O", "note": "[Compound 345] (cyclo([Ac4c][NMeChg][NMedβ3hAla][NMeL]I[NMeA][Aze][NEtPhe(4-CF3)][Sar][hPhe(3-Cl-4-CF3)][Pro(4,4-F2)]))", "IC50": 58},
      {"smiles": "CC[C@H](C)[C@@H]1NC(=O)[C@H](C)N(C)C(=O)C[C@@H](C(=O)N(C)C)N(C)C(=O)[C@H](C(C)C)N(C)C(=O)C2(CCCC2)NC(=O)[C@H](Cc2ccccc2Cl)N(CC)C(=O)[C@H](CCc2ccc(C(F)(F)F)c(Cl)c2)NC(=O)CN(C)C(=O)[C@H](CC2CCCCC2)N(C)C(=O)CN(C)C(=O)CN(C)C1=O", "note": "[Compound 2164] ([NMeA]I[Sar][Sar][NMeCha][Sar][hPhe(3-Cl-4-CF3)][NEtPhe(2-Cl)][Ac5c][NMeV][NMeD]-NMe2; lactam N-11)", "IC50": 300},
      {"smiles": "CC[C@H](C)[C@@H]1NC(=O)[C@H](CC(C)C)N(C)C(=O)C[C@H](C(=O)N2CCCC2)N(C)C(=O)[C@H](C2CCCC2)N(C)C(=O)C2(CCCC2)NC(=O)[C@@H]2CCCN2C(=O)[C@H](CCc2ccc(C(F)(F)F)c(Cl)c2)NC(=O)CN(C)C(=O)[C@H](CC2CCCCC2)N(C)C(=O)[C@@H]2CCN2C(=O)[C@H](C)N(C)C1=O", "note": "[Compound 1868] ([NMeL]I[NMeA][Aze][NMeCha][Sar][hPhe(3-Cl-4-CF3)]P[Ac5c][NMeGly(cPent)][dNMeD]-Pyrrolidide; lactam N-11)", "IC50": 100}
    ]}
  ]
}
